One data set deals with KCNMA1 transcript. Put plainly: qRT-PCR of KCNMA1 transcript in WM1552C lines. It is filed as cell-based, human. The following applies: WM1552C/211(400). As for the experimental part:
Expression levels of all statistically significant and differentially expressed mRNAs and miRNAs were confirmed by qRT-PCR using TaqMan® expression kits (Applied Biosystems) using multiple technical and biological replicates. GAPDH was used as the internal reference probe for normalization of expression values of mRNA, and RNU48 was used for normalization of miRNA. RNA analysis by Northern blots used 20 μg of total RNA concentrated from each sample (melanoma cell lines and melanocytes), separated on 15% urea denaturing polyacrylamide gels by electrophoresis. Gels were electroblotted to nylon membranes, cross-linked by UV, prehybridized in ULTRAhyb®-Oligo (Ambion) for 30 minutes at 42° C., and hybridized with 5′-biotinylated anti-miRNA DNA oligonucleotides (100 nM each) at 42° C. overnight, washed, and detected by chemiluminescence (Brightstar® detection kit, Ambion). Anti-U6 probes were used as a reference control (at 10 pM).
qRT-PCR analyses were then run to determine whether the induced expression of miR-211 in melanoma cells could reduce KCNMA1 transcript levels. […] To further confirm our observations, we measured the correlation between miR-211 expression and KCNMA1 protein levels (FIG. 6D). […] Melanocytes were transfected with anti-miR-211 inhibitors (Exiqon) and the protein expression of KCNMA1 was measured.

The next data set relates to A375 cells. Put plainly: lipid species (PI acyl chains) by mass spectrometry in A375 vs A375/211. It is filed as cell-based, human. To be noted: A375/211 vs A375 cells. An excerpt: To determine the effect of miR-211 expression in A375 cells on the production of lipid species, as an indicator of metabolic change, fatty acids were isolated and quantitated in A375 cells and A375/211 by mass spectrometry. […] This confirms that miR-211 is capable of altering the metabolic profile of these metabolic cells.

Consider “miR-211: pre-miR-211 sequence stably expressed from plasmid pcDNA4/miR-211 in melanoma cells; mature sequence UUCCCUUUGUCAUCCUUCGCCU (SEQ ID NO: 15) (listed as Homo sapiens)”, for which the “KCNMA1 transcript expression vs wild type WM1552C” value in the data set with KCNMA1 transcript is reported as “down-regulates”. Besides, in the data set on A375 cells, the “content of 18:0-18:2 acyl chains” value is “large increase” and the “content of 18:0-20:4 acyl chains” value was “large decrease”.

The values above are taken from patent US9994915B2, “miR-211 expression and related pathways in human melanoma” (Sanford-Burnham Medical Research Institute, priority 2010, dated 2018).
